For one data set, the system named is Escherichia coli. The data set can be described thus: microbe, parasite or virus in culture.
A further data set concerns the target Cytochrome P450 2D6 (Homo sapiens, UniProt P10635).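 Note: CYP2D6 member of a cytochrome P450 panel assay.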
The target in the next data set is Cytochrome P450 3A4 (Homo sapiens, UniProt P08684).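 Note: CYP3A4 tested as one member of a cytochrome P450 panel screen.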
The next data set addresses Cytochrome P450 2C19 (Homo sapiens, UniProt P33261). Kind of data set: Cytochrome panel assay with activity outcomes. Panel member name: p450-cyp2c19 Compounds with AC50 equal or less than 10 uM are considered active. The format is functional. The note with it: read-out: AC50.
Data set [1] has as its target T1, High affinity choline transporter 1 (Homo sapiens, UniProt Q9GZV3).
T1 sequence (Q9GZV3 whole entry): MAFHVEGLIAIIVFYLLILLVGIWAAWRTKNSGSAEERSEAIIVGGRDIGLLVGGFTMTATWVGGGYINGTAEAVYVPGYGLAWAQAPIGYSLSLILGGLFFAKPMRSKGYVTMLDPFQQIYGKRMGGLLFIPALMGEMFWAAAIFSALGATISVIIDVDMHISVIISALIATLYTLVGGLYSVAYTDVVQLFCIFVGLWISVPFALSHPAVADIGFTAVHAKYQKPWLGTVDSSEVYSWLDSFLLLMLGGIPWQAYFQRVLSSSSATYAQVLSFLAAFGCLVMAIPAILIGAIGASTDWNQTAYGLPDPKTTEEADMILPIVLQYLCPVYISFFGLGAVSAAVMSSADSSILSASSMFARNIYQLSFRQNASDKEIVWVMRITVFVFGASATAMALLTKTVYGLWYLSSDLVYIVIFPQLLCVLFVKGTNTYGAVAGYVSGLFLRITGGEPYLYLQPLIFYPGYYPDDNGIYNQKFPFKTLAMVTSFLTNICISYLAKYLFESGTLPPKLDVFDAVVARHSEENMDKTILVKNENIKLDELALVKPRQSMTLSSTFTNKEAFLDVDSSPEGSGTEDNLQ
Kind of data set: CHT inhibitors, dose response, cell-based, 5-point CRC, membrane potential dye (AID 504840). The format is functional.

The next data set addresses Cytochrome P450 2C9 (Homo sapiens, UniProt P11712).
A further data set concerns the target Nonstructural protein 1 (Influenza A virus, UniProt Q194T2). The class given is functional, Influenza A virus (A/California/07/2009(H1N1)).
Data set [2] has as its target Glyceraldehyde-3-phosphate dehydrogenase (Homo sapiens, UniProt P04406).
For data set [3], the target named is T2, Alkaline phosphatase, tissue-nonspecific isozyme (Homo sapiens, UniProt P05186).
T2 sequence (P05186 whole entry): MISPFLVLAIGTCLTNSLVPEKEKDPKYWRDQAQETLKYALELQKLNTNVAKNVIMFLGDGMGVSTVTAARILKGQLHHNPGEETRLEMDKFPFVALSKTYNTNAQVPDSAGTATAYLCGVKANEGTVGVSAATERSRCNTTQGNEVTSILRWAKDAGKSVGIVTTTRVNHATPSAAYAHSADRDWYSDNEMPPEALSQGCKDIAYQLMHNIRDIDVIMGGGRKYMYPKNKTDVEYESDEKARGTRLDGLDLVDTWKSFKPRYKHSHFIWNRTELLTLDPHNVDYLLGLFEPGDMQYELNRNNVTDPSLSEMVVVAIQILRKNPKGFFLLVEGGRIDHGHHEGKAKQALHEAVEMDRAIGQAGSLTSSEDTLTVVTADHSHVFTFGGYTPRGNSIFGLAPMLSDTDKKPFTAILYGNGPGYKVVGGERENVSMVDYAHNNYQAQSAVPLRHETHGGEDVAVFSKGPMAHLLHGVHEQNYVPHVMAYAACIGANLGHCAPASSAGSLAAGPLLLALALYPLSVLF
Kind of data set: human TNAP enzyme inhibitors, SAR follow-up, biochemical, luminescent, dose response (AID 1056).

The target of another data set is Genome polyprotein (dengue virus type 2, UniProt P29990). The data set can be described thus: Dengue-2 NS5 methyltransferase inhibitors, primary screen, biochemical, confirmation dose response (AID 588689). The class given is functional.
The target in data set [4] is T3, Voltage-gated N-type calcium channel alpha-1B subunit/Amyloid beta A4 precursor protein-binding family A member 1 (Homo sapiens, UniProt Q00975+Q02410). The class given is protein assay.
T3 sequence (Q00975 whole entry): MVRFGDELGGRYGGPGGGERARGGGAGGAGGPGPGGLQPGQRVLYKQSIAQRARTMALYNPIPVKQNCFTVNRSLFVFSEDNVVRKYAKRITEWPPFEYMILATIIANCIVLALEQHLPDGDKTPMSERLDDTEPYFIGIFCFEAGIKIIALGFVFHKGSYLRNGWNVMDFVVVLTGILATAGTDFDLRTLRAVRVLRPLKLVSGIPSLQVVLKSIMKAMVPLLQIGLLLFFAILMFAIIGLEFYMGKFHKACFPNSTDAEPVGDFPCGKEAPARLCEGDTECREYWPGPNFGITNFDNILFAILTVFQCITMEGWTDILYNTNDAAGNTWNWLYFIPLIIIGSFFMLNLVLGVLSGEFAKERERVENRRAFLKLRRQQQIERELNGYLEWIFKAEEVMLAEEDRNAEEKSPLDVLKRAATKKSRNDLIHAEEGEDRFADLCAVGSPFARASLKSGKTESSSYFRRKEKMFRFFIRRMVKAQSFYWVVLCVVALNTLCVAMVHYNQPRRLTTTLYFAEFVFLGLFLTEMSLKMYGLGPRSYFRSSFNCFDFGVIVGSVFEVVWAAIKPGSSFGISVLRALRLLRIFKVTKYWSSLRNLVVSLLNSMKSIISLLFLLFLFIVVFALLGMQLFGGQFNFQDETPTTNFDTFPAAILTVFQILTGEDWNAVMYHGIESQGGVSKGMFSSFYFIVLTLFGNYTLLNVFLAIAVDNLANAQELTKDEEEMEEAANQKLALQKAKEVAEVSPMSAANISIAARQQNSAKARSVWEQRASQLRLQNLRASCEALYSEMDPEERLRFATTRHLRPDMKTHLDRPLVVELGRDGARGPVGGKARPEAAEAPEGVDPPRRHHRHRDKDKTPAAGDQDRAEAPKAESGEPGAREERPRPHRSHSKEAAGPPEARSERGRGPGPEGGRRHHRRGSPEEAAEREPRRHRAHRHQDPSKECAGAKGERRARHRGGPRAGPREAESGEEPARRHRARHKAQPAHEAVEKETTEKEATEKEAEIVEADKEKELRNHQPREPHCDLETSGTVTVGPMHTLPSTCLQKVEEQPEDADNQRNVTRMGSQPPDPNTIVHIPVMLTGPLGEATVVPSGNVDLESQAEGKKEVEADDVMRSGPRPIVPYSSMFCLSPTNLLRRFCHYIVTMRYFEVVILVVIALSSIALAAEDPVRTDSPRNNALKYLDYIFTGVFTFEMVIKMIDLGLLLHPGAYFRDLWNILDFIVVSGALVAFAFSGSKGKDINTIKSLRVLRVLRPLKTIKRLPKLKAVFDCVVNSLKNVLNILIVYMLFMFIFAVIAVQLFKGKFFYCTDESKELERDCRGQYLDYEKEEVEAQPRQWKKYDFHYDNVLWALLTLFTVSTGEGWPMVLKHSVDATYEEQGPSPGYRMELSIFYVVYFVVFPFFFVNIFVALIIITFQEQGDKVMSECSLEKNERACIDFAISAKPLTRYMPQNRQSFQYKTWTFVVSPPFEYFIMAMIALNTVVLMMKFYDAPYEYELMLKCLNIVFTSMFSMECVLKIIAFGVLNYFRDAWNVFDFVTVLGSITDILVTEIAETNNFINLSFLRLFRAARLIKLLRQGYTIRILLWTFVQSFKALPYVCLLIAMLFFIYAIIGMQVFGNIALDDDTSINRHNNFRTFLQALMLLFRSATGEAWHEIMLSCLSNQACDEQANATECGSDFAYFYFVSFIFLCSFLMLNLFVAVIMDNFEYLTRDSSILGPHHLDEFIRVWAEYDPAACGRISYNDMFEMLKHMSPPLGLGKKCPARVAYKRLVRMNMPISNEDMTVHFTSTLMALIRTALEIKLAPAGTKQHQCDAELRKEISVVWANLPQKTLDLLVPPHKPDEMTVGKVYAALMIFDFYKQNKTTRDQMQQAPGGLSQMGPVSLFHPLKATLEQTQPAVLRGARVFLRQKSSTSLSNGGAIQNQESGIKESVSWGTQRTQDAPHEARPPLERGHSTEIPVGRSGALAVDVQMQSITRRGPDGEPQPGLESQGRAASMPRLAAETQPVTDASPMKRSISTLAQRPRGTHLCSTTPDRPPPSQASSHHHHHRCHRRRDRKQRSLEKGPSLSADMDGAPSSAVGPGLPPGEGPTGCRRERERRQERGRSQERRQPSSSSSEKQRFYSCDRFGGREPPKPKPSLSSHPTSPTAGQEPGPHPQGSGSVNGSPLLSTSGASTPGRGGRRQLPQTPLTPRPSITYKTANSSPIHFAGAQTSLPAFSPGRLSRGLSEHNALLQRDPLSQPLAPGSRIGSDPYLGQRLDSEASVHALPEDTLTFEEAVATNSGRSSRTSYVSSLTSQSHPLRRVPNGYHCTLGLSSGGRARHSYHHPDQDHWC
T3 sequence (Q02410 whole entry): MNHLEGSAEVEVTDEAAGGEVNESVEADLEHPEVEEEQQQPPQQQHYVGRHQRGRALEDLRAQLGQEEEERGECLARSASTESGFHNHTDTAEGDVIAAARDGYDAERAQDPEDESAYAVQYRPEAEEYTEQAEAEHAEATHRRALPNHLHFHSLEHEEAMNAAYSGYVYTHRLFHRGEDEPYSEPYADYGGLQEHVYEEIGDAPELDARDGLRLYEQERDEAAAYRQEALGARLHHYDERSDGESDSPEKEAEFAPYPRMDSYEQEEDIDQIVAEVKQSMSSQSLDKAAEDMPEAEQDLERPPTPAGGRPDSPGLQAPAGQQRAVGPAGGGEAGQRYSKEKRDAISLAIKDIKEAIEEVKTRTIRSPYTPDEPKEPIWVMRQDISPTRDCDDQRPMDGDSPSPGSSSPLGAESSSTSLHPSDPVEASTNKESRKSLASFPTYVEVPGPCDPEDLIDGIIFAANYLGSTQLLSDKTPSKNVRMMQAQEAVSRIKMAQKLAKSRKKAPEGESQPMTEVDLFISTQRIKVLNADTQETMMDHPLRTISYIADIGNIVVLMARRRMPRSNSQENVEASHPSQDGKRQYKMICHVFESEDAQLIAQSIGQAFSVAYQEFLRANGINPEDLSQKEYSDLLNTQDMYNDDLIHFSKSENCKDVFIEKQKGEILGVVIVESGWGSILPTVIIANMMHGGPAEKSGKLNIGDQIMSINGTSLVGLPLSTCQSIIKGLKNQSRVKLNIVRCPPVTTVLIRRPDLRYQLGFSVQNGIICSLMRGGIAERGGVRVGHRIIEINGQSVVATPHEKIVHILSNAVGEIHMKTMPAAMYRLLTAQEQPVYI
The target in data set [5] is T4, Rac GTPase-activating protein 1 (Homo sapiens, UniProt Q9H0H5).
T4 sequence (Q9H0H5 whole entry): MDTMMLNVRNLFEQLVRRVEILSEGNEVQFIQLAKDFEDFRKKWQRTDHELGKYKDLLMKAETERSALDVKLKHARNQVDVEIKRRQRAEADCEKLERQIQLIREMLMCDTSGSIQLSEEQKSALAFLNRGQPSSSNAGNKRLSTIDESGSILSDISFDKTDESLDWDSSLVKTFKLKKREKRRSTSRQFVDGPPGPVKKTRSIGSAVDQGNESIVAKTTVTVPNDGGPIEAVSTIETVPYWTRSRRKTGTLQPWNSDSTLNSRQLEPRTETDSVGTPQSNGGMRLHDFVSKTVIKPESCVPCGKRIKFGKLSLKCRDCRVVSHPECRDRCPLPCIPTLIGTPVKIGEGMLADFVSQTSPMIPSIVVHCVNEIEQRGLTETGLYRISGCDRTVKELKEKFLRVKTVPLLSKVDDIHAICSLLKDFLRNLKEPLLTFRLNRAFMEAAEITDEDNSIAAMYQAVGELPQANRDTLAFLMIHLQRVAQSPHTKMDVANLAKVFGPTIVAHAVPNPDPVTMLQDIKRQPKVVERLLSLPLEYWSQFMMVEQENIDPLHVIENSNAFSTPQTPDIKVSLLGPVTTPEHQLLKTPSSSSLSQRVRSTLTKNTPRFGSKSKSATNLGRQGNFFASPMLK
Kind of data set: MgcRacGAP GTPase-activating activity inhibitors, confirmation, biochemical, ADP Hunter fluorescence, primary and confirmatory (AID 624330). The format is functional.

The target of data set [6] is T3, Voltage-gated N-type calcium channel alpha-1B subunit/Amyloid beta A4 precursor protein-binding family A member 1. The format is protein assay. The source holds these as a separate data set.
In data set [7] the target is Alkaline phosphatase, placental type (Homo sapiens, UniProt P05187). Kind of data set: PLAP enzyme inhibitors, confirmation, biochemical, luminescence (AID 1512). The class given is functional.
Alkaline phosphatase, placental type, sequence (P05187 whole entry): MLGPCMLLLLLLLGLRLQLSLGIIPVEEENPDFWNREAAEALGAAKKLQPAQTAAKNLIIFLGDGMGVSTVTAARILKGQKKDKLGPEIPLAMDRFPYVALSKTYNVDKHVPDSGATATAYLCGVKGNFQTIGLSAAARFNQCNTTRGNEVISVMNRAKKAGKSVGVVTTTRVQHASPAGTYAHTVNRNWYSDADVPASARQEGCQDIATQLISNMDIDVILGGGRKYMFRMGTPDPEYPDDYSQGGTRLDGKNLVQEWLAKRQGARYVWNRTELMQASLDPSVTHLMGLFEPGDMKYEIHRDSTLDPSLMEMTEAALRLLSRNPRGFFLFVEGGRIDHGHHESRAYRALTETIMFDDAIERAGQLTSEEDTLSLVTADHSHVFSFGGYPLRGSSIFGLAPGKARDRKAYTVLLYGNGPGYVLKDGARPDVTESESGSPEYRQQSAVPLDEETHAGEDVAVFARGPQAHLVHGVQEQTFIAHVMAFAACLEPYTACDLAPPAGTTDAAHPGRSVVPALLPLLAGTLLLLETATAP
Data set [8] deals with T5, Microphthalmia-associated transcription factor (Homo sapiens, UniProt O75030).
T5 sequence (O75030 whole entry): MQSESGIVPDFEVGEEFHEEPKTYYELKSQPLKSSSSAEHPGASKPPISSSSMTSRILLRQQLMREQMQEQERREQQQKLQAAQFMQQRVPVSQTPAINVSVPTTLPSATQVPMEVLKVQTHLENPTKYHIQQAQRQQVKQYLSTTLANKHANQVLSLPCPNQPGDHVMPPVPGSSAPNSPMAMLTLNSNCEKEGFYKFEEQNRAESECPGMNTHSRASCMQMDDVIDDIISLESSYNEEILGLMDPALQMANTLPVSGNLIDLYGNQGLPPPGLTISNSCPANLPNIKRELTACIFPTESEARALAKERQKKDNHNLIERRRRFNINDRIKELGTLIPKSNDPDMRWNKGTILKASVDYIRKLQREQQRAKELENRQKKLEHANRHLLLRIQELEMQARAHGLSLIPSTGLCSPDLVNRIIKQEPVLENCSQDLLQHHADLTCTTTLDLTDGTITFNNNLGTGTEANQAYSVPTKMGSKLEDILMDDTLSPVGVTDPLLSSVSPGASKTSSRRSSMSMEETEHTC
The data set can be described thus: TRPM1 promoter luciferase signal decrease, dose response, MITF inhibitor project, cell-based, SK-MEL-5, cherry-picked, set 3 (AID 493073).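 Note: SK-MEL-5 melanoma cells with luciferase driven by the MITF target TRPM1 promoter.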 The format is functional.

Active and inactive are the calls of the source.

Glyceraldehyde-3-phosphate dehydrogenase, sequence (P04406 whole entry): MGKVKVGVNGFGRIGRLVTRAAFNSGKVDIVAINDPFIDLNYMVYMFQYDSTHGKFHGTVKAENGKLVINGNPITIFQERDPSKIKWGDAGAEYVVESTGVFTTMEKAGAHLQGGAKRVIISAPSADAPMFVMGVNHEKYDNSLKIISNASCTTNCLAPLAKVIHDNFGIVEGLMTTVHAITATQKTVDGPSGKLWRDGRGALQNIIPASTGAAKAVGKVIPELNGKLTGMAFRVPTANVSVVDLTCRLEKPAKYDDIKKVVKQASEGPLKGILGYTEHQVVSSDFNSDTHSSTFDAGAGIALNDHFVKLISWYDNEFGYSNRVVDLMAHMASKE
Cytochrome P450 3A4, sequence (P08684 whole entry): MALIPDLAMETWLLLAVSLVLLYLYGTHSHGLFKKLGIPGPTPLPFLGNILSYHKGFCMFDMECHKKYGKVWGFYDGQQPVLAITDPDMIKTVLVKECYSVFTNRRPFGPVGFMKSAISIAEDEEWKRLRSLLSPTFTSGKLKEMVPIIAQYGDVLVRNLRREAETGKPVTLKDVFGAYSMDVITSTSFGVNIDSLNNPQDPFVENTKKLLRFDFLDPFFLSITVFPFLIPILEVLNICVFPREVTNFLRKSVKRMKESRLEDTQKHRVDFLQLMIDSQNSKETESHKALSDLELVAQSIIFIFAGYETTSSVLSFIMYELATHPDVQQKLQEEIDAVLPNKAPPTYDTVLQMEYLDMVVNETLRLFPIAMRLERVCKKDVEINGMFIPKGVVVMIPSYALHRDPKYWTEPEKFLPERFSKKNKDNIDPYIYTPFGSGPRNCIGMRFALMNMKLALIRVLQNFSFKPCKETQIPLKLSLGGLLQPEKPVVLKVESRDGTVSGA
Cytochrome P450 2C9, sequence (P11712 whole entry): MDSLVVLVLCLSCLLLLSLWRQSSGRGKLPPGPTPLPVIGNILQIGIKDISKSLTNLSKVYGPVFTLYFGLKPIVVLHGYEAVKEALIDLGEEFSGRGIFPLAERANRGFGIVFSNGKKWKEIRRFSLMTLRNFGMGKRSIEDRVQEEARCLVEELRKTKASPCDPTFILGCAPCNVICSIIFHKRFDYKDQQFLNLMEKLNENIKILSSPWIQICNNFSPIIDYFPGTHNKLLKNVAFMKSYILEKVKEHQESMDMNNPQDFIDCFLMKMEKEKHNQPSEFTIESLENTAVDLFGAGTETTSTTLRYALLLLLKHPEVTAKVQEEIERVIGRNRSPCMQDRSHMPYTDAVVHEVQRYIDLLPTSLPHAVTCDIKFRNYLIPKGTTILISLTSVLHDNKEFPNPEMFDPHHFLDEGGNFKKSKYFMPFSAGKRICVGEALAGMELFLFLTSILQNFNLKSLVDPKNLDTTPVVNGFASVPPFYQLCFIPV

For the molecule `Nc1nc(=O)n([C@H]2C[C@H](O)[C@@H](CO)O2)cc1F`, in the data set with Escherichia coli, the AC50 is 33.8 µM (active). Take `CCOC(=O)N1CCN(C(=O)c2ccc3nc(N4CCC(C)CC4)sc3c2)CC1`: the AC50 on Cytochrome P450 2D6 was 28.2 µM (inconclusive); on Cytochrome P450 3A4 it was “inconclusive”; on Cytochrome P450 2C19, 11.2 µM (inconclusive). In the case of `Cc1cc(NS(=O)(=O)c2ccc(NC(=O)COc3c(C)cc(Br)cc3C)cc2)no1`, in data set [1], the IC50 was 13.2 µM (active). As to `COc1ccc(NC(=O)CCNS(=O)(=O)c2ccc3c(c2)c(=O)n(C)c(=O)n3C)cc1`, the AC50 entry on Cytochrome P450 2C9 and at Cytochrome P450 3A4 was “inconclusive” in each case.

With `COC1=C(Nc2ccc(C)cc2)C(=O)c2ccccc2C1=O`, the IC50 at Nonstructural protein 1 was 10 µM (active).

For `O=S(=O)(Nc1cccnc1)c1cc(Cl)ccc1F`, the IC50 in data set [2] is > 100 µM (not active); in data set [3], 46.5 µM (active). On to `O=C(O)CCCNC(=O)/C=C/c1ccco1`, for which the IC50 was > 100 µM (active) at Genome polyprotein, 17.1 µM (active) in data set [4], 151 µM (active) in [5] and 13.6 µM (active) in data set [6]. Regarding `C/C=C\C(=O)N(CC)c1ccccc1C`, the AC50 result on Cytochrome P450 3A4 is reported as “inconclusive”.

In the case of `Cc1cccc(C)c1OCc1nnc2c3cnn(-c4ccccc4)c3ncn12`, the results for the IC50 in data set [2], in data set [3] and in [7] were > 100 µM (not active), > 100 µM (inactive) and > 100 µM (inactive), respectively. Regarding `CCOC(=O)N1CCN(C(=O)CCCn2c(=S)[nH]c3ccsc3c2=O)CC1`, the IC50 in data set [1] is 12.3 µM (active). For the molecule `O=C(CSc1nc2ccccc2s1)c1ccc(O)c(O)c1`, the half-inhibitory concentration (IC50) in data set [3] was 3.03 µM (active); in data set [7], 3.42 µM (active). `NC(=O)c1c(NC(=O)C(=O)N2CCOCC2)sc2c1CCC2`: the AC50 with Escherichia coli is 23.9 µM (active). As for `COc1ccccc1NC(=O)CSc1nn2c(=O)c(C)nnc2s1`, the IC50 at Nonstructural protein 1 was 16.1 µM (active). With `COC(=O)c1cc(C(=O)c2ccc(Cl)cc2Cl)cn1C`, the AC50 entry on Cytochrome P450 2C9 and at Cytochrome P450 3A4 was “inconclusive” each time.

Consider `O=S(=O)(Nc1ccccc1Br)c1cnc2ccccc2c1`, for which the IC50 was > 10 µM (inconclusive) in [2] and > 10 µM (inactive) in data set [3]. On to `O=C(NC1(C(F)(F)F)Oc2ccc(Cl)cc2O1)N1CCC2(CC1)OCCO2` (stereo not drawn), for which the IC50 in [7] was 9.93 µM (active).

In the case of `CN(C(=O)/C=C/c1ccc([N+](=O)[O-])s1)c1ccccc1`, in data set [8], the half-maximal activity concentration (AC50) was 9.11 µM (active). For `Nc1ccccc1C(=O)NCC1(c2ccccc2)CCCC1`, in the data set with Escherichia coli, the AC50 is 113 µM (active). Consider `CCOC(=O)CCc1ccc(NC(=O)/C=C/c2ccc([N+](=O)[O-])o2)cc1`, for which, in data set [8], the AC50 is 6.83 µM (active). With `CC(C)c1ccc(NC(=O)CSc2nc(=O)n(CCCN3CCOCC3)c3c2CCC3)cc1`, the IC50 in data set [1] was 13.8 µM (active).

Turning to `CCCCN(C)C(=O)NC1(C(F)(F)F)Oc2ccccc2O1`, the IC50 in [3] and in data set [7] was > 100 µM (inactive) each time. `CCOC(=O)Cn1nc(C)n(-c2ccc(C)cc2)c1=O`: the AC50 entry was “inconclusive” on Cytochrome P450 3A4 and 28.2 µM (inconclusive) at Cytochrome P450 2C19. As to `O=C(NCCO)c1cc(-c2cc(F)c(Cl)cc2Cl)n[nH]1`, the IC50 in data set [2] is > 100 µM (not active); in data set [7], > 25 µM (inactive).

Values taken from ChEMBL document CHEMBL1201862, “PubChem BioAssay data set” (2004).
